In US8809010B2, “Method for prophylactic treatment of alzheimer's disease using inhibitors of glutaminyl cyclase and glutamate cyclases” (Probiodrug AG, priority 2003, dated 2014):
Like-named read-outs stand apart in the source and are kept apart here. Blank lines part the entries; values can stand above or below the molecule they belong to. Bridge positions count the residues as written; N and C are the ends. Ends that are not written are not given here. Peptide text beside a SMILES is read from it. Gln(NMe) = glutamine with N-methylated side-chain amide

How the values were obtained:
human QC [1] = biological target: T1, human QC (Homo sapiens, UniProt Q16769); test: Continuous spectrophotometric QC assay (glutamate dehydrogenase coupled), substrate kinetics; type: biochemical; settings: for Ki* (mM): for substrate inhibition;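 for all read-outs here: initial rates read on a microplate reader at 30 °C, with enzyme activity quantified against an ammonia calibration curve under the same assay conditions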
T1 construct: The cDNA of the mature QC starting with codon 38 was fused in frame with the plasmid encoded 6× histidine tag; 6xHis; made in house; host or cells: Pichia pastoris X33 (pPICZαB, secreted); also E. coli M15 (pQE-31)
Protocol: The initial velocities were evaluated and the enzymatic activity was determined from a standard curve of ammonia under assay conditions. All samples were measured at 30° C., using either the [sequence]luor Plus or the Sunrise (both from TECAN) reader for microplates. Kinetic data was evaluated using GraFit software.

human QC [2] = biological target: T1, human QC; test: QC inhibitor assay (fluorometric, H-Gln-AMC / H-Gln-βNA, pyroglutamyl aminopeptidase coupled); type: biochemical
human QC [3] = biological target: T1, human QC; settings: cited from earlier work
mammalian QC = mammalian QC (Bos taurus, UniProt Q28120); settings: cited from earlier work
human QC [4] = biological target: T1, human QC; test: Qualitative substrate conversion (MALDI-TOF / fluorometric); type: biochemical; design: key to substrate conversion, determined qualitatively: *: determined qualitatively by MALDI-TOF experiments; settings: for substrate conversion, determined qualitatively: Human QC, MALDI-TOF
Protocol: Matrix-assisted laser desorption/ionization mass spectrometry was carried out using the Hewlett-Packard G2025 LD-TOF System with a linear time of flight analyzer. […] Samples (5 μl) were mixed with equal volumes of the matrix solution. For matrix solution we used DHAP/DAHC, prepared by solving 30 mg 2′,6′-dihydroxyacetophenone (Aldrich) and 44 mg diammonium hydrogen citrate (Fluka) in 1 ml acetonitrile/0.1% TFA in water (1/1, v/v). A small volume (≈1 μl) of the matrix-analyte-mixture was transferred to a probe tip and immediately evaporated in a vacuum chamber (Hewlett-Packard G2024A sample prep accessory) to ensure rapid and homogeneous sample crystallization.
In order to further investigate the specificity and selectivity of the QCs, peptides were synthesized comprising either a modified N-terminal glutaminyl residue or a modified amino acid in the second position. […] Due to the cyclization of the glutaminyl residue or its analog, respectively, a mass difference of the substrate and the product of catalysis is detected. In cases of ammonia liberation of one mole per mole of substrate, the conversion was also analyzed quantitatively using the spectrophotometric assay.

[5] = recombinant human QC, buffer containing 1% DMSO
[6] = Human QC, 0.05M Tris-HCl, pH 8.0
[7] = Human QC, 0.05M Tris-HCl, pH 8.0, 0.5 M KCl
[8] = recombinant human QC, absence of DMSO

T1 sequence (Q16769 29-361): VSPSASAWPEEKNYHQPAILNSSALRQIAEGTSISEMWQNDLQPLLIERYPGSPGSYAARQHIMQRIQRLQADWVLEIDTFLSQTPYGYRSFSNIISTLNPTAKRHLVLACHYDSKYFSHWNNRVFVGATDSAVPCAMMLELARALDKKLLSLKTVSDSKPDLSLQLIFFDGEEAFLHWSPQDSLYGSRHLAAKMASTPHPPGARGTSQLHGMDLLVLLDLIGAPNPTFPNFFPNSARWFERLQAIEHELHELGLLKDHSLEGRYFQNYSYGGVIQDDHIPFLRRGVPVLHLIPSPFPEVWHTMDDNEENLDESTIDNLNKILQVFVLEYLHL
Sequence of mammalian QC (Q28120 29-361): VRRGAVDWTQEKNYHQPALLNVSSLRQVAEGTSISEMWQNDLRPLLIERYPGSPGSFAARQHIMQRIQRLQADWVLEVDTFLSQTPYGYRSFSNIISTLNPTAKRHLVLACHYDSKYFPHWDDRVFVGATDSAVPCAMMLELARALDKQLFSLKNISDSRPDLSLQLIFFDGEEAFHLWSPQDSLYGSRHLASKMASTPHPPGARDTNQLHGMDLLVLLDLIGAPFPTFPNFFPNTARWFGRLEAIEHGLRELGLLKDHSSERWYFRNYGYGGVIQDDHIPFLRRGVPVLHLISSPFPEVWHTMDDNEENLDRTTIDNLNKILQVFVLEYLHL

kcat (human QC [1]; Human QC): 22.8 ± 0.6 s⁻¹
Molecule: H-Gln-cyclo(Nε-Lys-Arg-Pro-Ala-Gly-Phe) (H-QKRPAGF; lactam 2-C; SMILES C[C@@H]1NC(=O)[C@@H]2CCCN2C(=O)[C@H](CCCNC(=N)N)NC(=O)[C@@H](NC(=O)[C@@H](N)CCC(N)=O)CCCCNC(=O)[C@H](Cc2ccccc2)NC(=O)CNC1=O)

Molecule: NCCc1c[nH]cn1 [L-Histamine]
inhibition of human QC (human QC [2]): about one order of magnitude smaller compared to its acetylated counterpart

Molecule: c1c[nH]cn1 [imidazole]
inhibition of human QC (human QC [3]): inhibited

Molecule: c1ccc(Cn2ccnc2)cc1 [1-benzylimidazole]
inhibition of human QC (human QC [2]): one of the most effective QC inhibitors

Molecule: O=C(O)CN(CCN(CC(=O)O)CC(=O)O)CC(=O)O [EDTA]
inhibition of mammalian QC (mammalian QC): did not inhibit

Molecule: phenylimidazole
inhibition of human QC (human QC [2]): inactive under the experimental conditions

kcat (human QC [1]; Human QC): 94 ± 1 s⁻¹
Ki* (mM) (human QC [1]; Human QC): n.i.
Molecule: NC(=O)CC[C@H](N)C(=O)N[C@@H](Cc1ccc(O)cc1)C(=O)O [H-Gln-Tyr-OH] (H-Gln-Tyr-OH)

KM (μM) (human QC [1]; Human QC): n.r.
kcat (s^−1) (human QC [1]; Human QC): n.r.
conversion by human QC (human QC [4]): no reactivity
Molecule: NC(=O)CC[C@H](N)C(=O)O [H-Gln-OH]

kcat (human QC [1]; Human QC): 5.3 ± 0.1 s⁻¹
Molecule: Cc1cc(=O)oc2cc(NC(=O)[C@@H](N)CCC(N)=O)ccc12 [H-Gln-AMC]

kcat (human QC [1]; Human QC): 76.3 ± 0.7 s⁻¹
Molecule: C[C@H](NC(=O)[C@H](C)NC(=O)[C@@H](N)CCC(N)=O)C(N)=O [H-Gln-Ala-Ala-NH2] (H-Gln-Ala-Ala-NH2)

kcat (human QC [1]; Human QC): 40.1 ± 0.9 s⁻¹
Molecule: C[C@H](NC(=O)[C@@H](N)CCC(N)=O)C(N)=O [H-Gln-Ala-NH2] (H-Gln-Ala-NH2)

kcat (human QC [1]; [5]): 62 ± 3 s⁻¹
Molecule: QFRHDSGYEVHHQKLVFFA-NH2 [[Gln^3]Aβ3-21a]

Ki (human QC [2]): 1530 nM
Molecule: N#CN=C(NCCCn1ccnc1)NCc1ccc2c(c1)OCO2 [Example 81]

Res. Act. (%) (human QC [2]; residual QC activity with inhibitor): 19.0%
Molecule: O=C(NCCCn1ccnc1)Nc1cc(F)cc2c1OCOC2 [Example 97]

inhibition of human QC (human QC [2]): improved binding to the active site
Molecule: Cn1ccnc1 [1-methylimidazole]

substrate conversion, determined qualitatively (human QC [4]): *
Molecule: [Gln^5]-substance P (5-11): QC substrate (QQFFGLM; ends and bridges not checked)

Ki (human QC [2]): 890 nM
Molecule: CCOc1ccc(NC(=S)NCCCn2ccnc2)cc1 [Example 27, 1-(3-(1H-imidazol-1-yl)propyl)-3-(4-ethoxyphenyl)thiourea]

inhibition of human QC (human QC [2]): improved binding to the active site
Molecule: C=Cn1ccnc1 [1-vinylimidazole]

kcat (human QC [1]; Human QC): 82.8 ± 1.2 s⁻¹
Molecule: NC(=O)CC[C@H](N)C(=O)N[C@@H](Cc1c[nH]cn1)C(=O)N1CCC[C@H]1C(N)=O [[Gln^1]-TRH] (H-Gln-His-Pro-NH2)

kcat (human QC [1]; Human QC): 69.6 ± 0.3 s⁻¹
Molecule: NC(=O)CC[C@H](N)C(=O)N[C@@H](CCC(=O)O)C(=O)N1CCC[C@H]1C(N)=O [[Gln^1]-FPP] (H-Gln-Glu-Pro-NH2)

kcat (human QC [1]; Human QC): 55.3 ± 1.6 s⁻¹
Molecule: H-QAASAA-NH2 [H-Gln-Ala-Ala-Ser-Ala-Ala-NH2]

kcat (human QC [1]; Human QC): 57.2 ± 0.4 s⁻¹
Ki (mM) (human QC [1]; [6]): n.i.
kcat (human QC [1]; [6]): 54.4 ± 0.5 s⁻¹
Ki (mM) (human QC [1]; [7]): n.i.
kcat (human QC [1]; [7]): 47.6 ± 0.6 s⁻¹
Ki* (mM) (human QC [1]; Human QC): n.i.
Molecule: C[C@H](NC(=O)[C@@H](N)CCC(N)=O)C(=O)O [H-Gln-Ala-OH] (H-Gln-Ala-OH)

Ki (human QC [2]): 6100 nM
Molecule: S=C(NCCCn1ccnc1)NCc1ccc2c(c1)OCO2 [Example 47]

inhibition of human QC (human QC [2]): not inhibited
Molecule: H-EFKRLA-NH2 [H-Glu-Phe-Lys-Arg-Leu-Ala-NH2]

conversion by human QC (human QC [4]): converted
Molecule: CC(C)C[C@H](NC(=O)[C@H](CCCNC(=N)N)NC(=O)[C@H](CCCCNC(=O)[C@@H](N)CCC(N)=O)NC(=O)[C@@H](N)CCC(N)=O)C(=O)N[C@@H](C)C(N)=O [H-Gln-Lys(Gln)-Arg-Leu-Ala-NH2] (H-QK(Gln)RLA-NH2)

Km (human QC [1]; [8]): 87 ± 3 µM
kcat (s^−1) (human QC [1]; [8]): 55 ± 1^# s^−1
Km (human QC [1]; [5]): 155 ± 4 µM
kcat (human QC [1]; [5]): 41.4 ± 0.4 s⁻¹
Molecule: QFRHDSGYE-NH2 [[Gln^3]Aβ3-11a]

kcat (human QC [1]; Human QC): 20.7 ± 0.2 s⁻¹
Ki* (mM) (human QC [1]; Human QC): n.i.
Molecule: NC(=O)CC[C@H](NC(=O)[C@@H](N)CCC(N)=O)C(=O)O [H-Gln-Gln-OH] (H-Gln-Gln-OH)

inhibition of human QC (human QC [2]): loss of inhibitory quality
Molecule: O=C(c1ccccc1)n1ccnc1 [1-benzoylimidazole]

kcat (human QC [1]; Human QC): 6.7 ± 0.2 s⁻¹
Ki* (mM) (human QC [1]; Human QC): n.i.
Molecule: CC(C)(C)OC(=O)C(N)CCC(N)=O (stereo not shown) [H-Gln-OtBu]

kcat (human QC [1]; Human QC): 60.5 ± 0.7 s⁻¹
Molecule: H-QAAAA-NH2 [H-Gln-Ala-Ala-Ala-Ala-NH2]

Molecule: Cn1cncc1CCN [3-methyl-4-histamine]
inhibition of human QC (human QC [2]): considerable improvement of efficacy

Ki (human QC [2]): 700 nM
Molecule: COc1ccc(NC(=S)NCCCn2ccnc2)cc1 [Example 11, 1-(3-(1H-imidazol-1-yl)propyl)-3-(4-methoxyphenyl)thiourea]

Molecule: NCCCn1ccnc1 [1-aminopropyl-imidazole]
inhibition of human QC (human QC [2]): one of the less effective compounds of this group

kcat (human QC [1]; Human QC): 17.2 ± 0.1 s⁻¹
Ki* (mM) (human QC [1]; Human QC): n.i.
Molecule: CC(C)[C@H](NC(=O)[C@@H](N)CCC(N)=O)C(=O)O [H-Gln-Val-OH] (H-Gln-Val-OH)

Molecule: reduced 6-methylpterin
inhibition of mammalian QC (mammalian QC): Inhibition

kcat (human QC [1]; Human QC): 24.7 ± 0.2 s⁻¹
Ki (mM) (human QC [1]; [6]): n.i.
kcat (human QC [1]; [6]): 21.4 ± 0.3 s⁻¹
Ki (mM) (human QC [1]; [7]): n.i.
kcat (human QC [1]; [7]): 18.9 ± 0.5 s⁻¹
Ki* (mM) (human QC [1]; Human QC): n.i.
Molecule: NC(=O)CC[C@H](N)C(=O)N[C@@H](CCC(=O)O)C(=O)O [H-Gln-Glu-OH] (H-Gln-Glu-OH)

conversion by human QC (human QC [4]): None of these compounds were converted
Molecule: COC(=O)CC[C@H](N)C(=O)Nc1ccc2ccccc2c1 [H-Glu(OMe)-βNA]

inhibition of human QC (human QC [2]): not inhibited
Molecule: COC(=O)CC[C@H](N)C(=O)N[C@@H](Cc1ccccc1)C(=O)N[C@@H](CCCCN)C(=O)N[C@@H](CCCNC(=N)N)C(=O)N[C@@H](CC(C)C)C(=O)N[C@@H](C)C(N)=O [H-Glu(OMe)-Phe-Lys-Arg-Leu-Ala-NH2] (H-E(OMe)FKRLA-NH2)

Km (human QC [1]; [5]): 19 ± 1 µM
kcat (human QC [1]; [5]): 10.0 ± 0.2 s⁻¹
substrate conversion, determined qualitatively (human QC [4]): *
Molecule: [Gln^3]-glucagon (3-29): QC substrate

Molecule: Cc1nc2ccccc2[nH]1 [2-methyl-benzimidazole]
inhibition of human QC (human QC [2]): the inhibition constant drops about one order of magnitude

kcat (human QC [1]; Human QC): 12.8 ± 0.5 s⁻¹
Ki (mM) (human QC [1]; [6]): n.i.
kcat (human QC [1]; [6]): 12.8 ± 0.3 s⁻¹
Ki (mM) (human QC [1]; [7]): n.i.
kcat (human QC [1]; [7]): 12.2 ± 0.1 s⁻¹
Ki* (mM) (human QC [1]; Human QC): n.i.
Molecule: NC(=O)CC[C@H](N)C(N)=O [H-Gln-NH2]
conversion by human QC (human QC [4]): converted glutaminamide to products readily

inhibition of human QC (human QC [2]): not detected
conversion by human QC (human QC [4]): No substrate conversion was observed
Molecule: H-Gln(NMe)-Phe-Lys-Ala-Glu-NH2 ({Gln(NMe)}-FKAE-NH2)
